Measured values taken from publication PMC10899790, “A bromodomain-independent mechanism of gene regulation by the BET inhibitor JQ1: direct activation of nuclear receptor PXR” (Nucleic Acids Research, 2023).

Experiments:
CYP3A4 = assay: RNA induction in HepaRG: CYP3A4 mRNA (RT-qPCR); conditions: differentiated HepaRG, 24 h
Experimental: (§1) Experiments with HepaRG cells were conducted similarly to previously described ([45]), with modifications. HepaRG cells were seeded in collagen-coated 24-well plates at 5 × 10^5 cells/well in HCM. Cells were differentiated for two weeks with HCM containing 2% DMSO. The cells were then treated with the respective chemicals for 24 h in HCM. The final DMSO concentration for the treatment was 0.5%. Total RNA was isolated from cells with Maxwell 16 LEV SimplyRNA Tissue Kits (Promega), and cDNA was generated from 250 ng of RNA with the SuperScript VILO cDNA Synthesis Kit (Thermo Fisher Scientific). Quantitative real-time polymerase chain reaction (RT-qPCR) was conducted with 2 μl of cDNA using TaqMan Fast Advanced Master Mix (Applied Biosystems) in an Applied Biosystems 7500 Fast Real-Time PCR System. TaqMan gene expression assays specific for CYP3A4 (Hs00604506_m1), PXR (Hs01114267_m1), MYC (Hs00153408_m1) and RNA18S (Hs03928990_g1) were purchased from Thermo Fisher Scientific. Fold induction values were calculated according to the 2^−ΔΔCt method, where ΔCt represents the differences in cycle threshold numbers between the target gene and reference gene and ΔΔCt represents the relative change in these differences between the control and treatment groups ([46]). RNA18S was used as the reference gene for relative quantification of all other genes.

PXR LBD = target: T1, PXR LBD (Homo sapiens, UniProt O75469); assay: TR-FRET PXR LBD ligand binding assay; conditions: TR-FRET competition with BODIPY FL vindoline
T1 construct: GST-PXR LBD protein (cat. # PV4841) were purchased from Thermo Fisher Scientific; purchased Thermo Fisher Scientific PV4841
T1 sequence (O75469 146-433 limits assumed): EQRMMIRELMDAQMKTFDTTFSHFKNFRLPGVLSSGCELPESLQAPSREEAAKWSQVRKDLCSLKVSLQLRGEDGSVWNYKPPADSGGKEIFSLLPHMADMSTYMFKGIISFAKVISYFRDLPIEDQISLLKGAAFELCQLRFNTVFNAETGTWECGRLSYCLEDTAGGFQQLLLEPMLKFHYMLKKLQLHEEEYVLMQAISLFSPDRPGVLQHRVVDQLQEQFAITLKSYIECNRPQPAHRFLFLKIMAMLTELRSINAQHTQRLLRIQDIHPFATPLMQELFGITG
Experimental: The TR-FRET PXR LBD ligand binding assay measures binding of PXR ligands by competition with a fluorescently labeled ligand (BODIPY FL vindoline) (Supplementary Figure S3) and was performed as previously described with minor modifications ([24]). […] BODIPY FL vindoline (15 μl/well, 133.3 nM in assay buffer) was dispensed into 384-well low-volume black assay plates. An Echo 650 Acoustic Liquid Handler then dispensed 60 nl/well of compound stocks or DMSO.

HepG2 cells = assay: Cytotoxicity assay (CellTiter-Glo); format: cell-based, human; conditions: HepG2, 24 h
Experimental: HepG2 cells (1 × 10^4/well in 25 μl phenol red-free DMEM supplemented with 5% charcoal/dextran-treated FBS) were plated and treated as in the transactivation assays. After 24 h compound treatment, the CellTiter-Glo Luminescent Cell Viability Assay (Promega) and an EnVision microplate reader were used to assess cytotoxicity. DMSO wells with cells served as negative controls, and wells without cells served as positive controls. The averaged luminescence signal of the wells without cells was subtracted from the luminescence signals of all other wells, and the background subtracted values were normalized to DMSO-treated wells containing cells to obtain percent cell viability.

PXR = assay: RNA induction in HepaRG: PXR RNA (RT-qPCR); format: cell-based, human; conditions: differentiated HepaRG, 24 h; FC relative to DMSO
Experimental: as §1

human PXR = target: T2, human PXR (Homo sapiens, UniProt O75469); assay: PXR transactivation assay (CYP3A4-luciferase reporter)
T2 sequence (O75469 1-434): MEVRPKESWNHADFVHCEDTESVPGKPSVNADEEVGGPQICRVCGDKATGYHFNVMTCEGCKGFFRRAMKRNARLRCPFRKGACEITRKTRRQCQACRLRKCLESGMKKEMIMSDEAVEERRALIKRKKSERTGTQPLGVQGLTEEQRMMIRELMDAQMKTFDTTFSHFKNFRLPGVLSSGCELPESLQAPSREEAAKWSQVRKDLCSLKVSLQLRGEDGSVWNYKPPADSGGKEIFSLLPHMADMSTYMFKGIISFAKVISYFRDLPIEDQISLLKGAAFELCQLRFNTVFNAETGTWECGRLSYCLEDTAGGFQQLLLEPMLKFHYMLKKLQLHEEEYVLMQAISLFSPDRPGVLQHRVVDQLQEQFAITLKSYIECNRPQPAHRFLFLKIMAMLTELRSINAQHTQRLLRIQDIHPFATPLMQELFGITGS
Experimental: Assays were performed similarly as previously described with minor modifications ([30–32]). HepG2 cells (7.5 × 10^5/well) were plated in six-well tissue culture-treated plates. The following day, cells were co-transfected with pGL3-CYP3A4-luc (2 μg/well), pRL-CMV (200 ng/well) and 100 ng/well of either empty vector (pcDNA3), pcDNA3-FLAG-PXR, pCMV6-mPXR or pGL4.53-PGK-PXR using Lipofectamine 3000 (Thermo Fisher Scientific). Twenty-four hours after transfection, cells were trypsinized and suspended in phenol red-free DMEM (Thermo Fisher Scientific) supplemented with 5% charcoal/dextran-treated FBS (HyClone), and 1 × 10^4 cells/well in 25 μl media were added to white 384-well plates. […] After 24 h, the Dual-Glo Luciferase Assay System (Promega) and EnVision microplate reader (PerkinElmer) were used to measure firefly and Renilla luciferase activities. CMV-driven Renilla luciferase was used as an indicator of general transcriptional modulation by the test compounds and is plotted as fold change (FC) relative to DMSO controls. Assays utilizing pGL4.54[luc2/TK], pGL4.53[luc2/PGK], or pGL4.13[luc2/SV40] were similarly performed and normalized. For the PXR-responsive CYP3A4-luciferase reporter, the measured relative light units (RLU) were normalized for each well using equation (1),
RLUT0901317 represents the measured RLU from wells containing 1 μM T0901317. For mPXR assays, 5 μM PCN was used in place of T0901317.

CMV promoter = assay: CMV-Renilla luciferase reporter; format: cell-based, human; conditions: HepG2, 24 h; fold change relative to DMSO
BET proteins = test system: BET proteins; design: method as in PMID 20871596; conditions: cited from earlier work

With Cc1sc2c(c1C)C(c1ccc(Cl)cc1)=N[C@H](CC(=O)OC(C)(C)C)c1nnc(C)n1-2 [(−)-JQ1] as the compound, how does the “endogenous CYP3A4 mRNA expression” value (CYP3A4; FC relative to DMSO) read?
Its value is “more robustly induced CYP3A4 expression than JQ1”.

And the “endogenous CYP3A4 mRNA expression on co-treatment with SPA70” value (CYP3A4; co-treated with SPA70)?
The value was “without reducing CYP3A4 in the presence of SPA70”.

And the “binding to purified PXR LBD (binding potency)” value (PXR LBD)?
Its value is “comparable to rifampicin in binding potencies”.

And the “cytotoxicity (cell viability)” value (HepG2 cells)?
The value was “decreased cytotoxicity”.

What about the “cytotoxicity (cell viability)” value (HepG2 cells; listed as (-)-JQ1) of the same compound?
The value was “less cytotoxic than JQ1”.

What about the “PXR RNA expression” value (PXR) of the same compound?
Its value is “much less than that observed with the BET inhibitors”.

What about the “activation of CYP3A4-luciferase reporter with PXR expressed from a PGK promoter” value (human PXR; HepG2, 24 h, PGK-driven PXR) of the same compound?
Its value is “retained activation of the CYP3A4-luciferase reporter”.

And the “activation of PXR-responsive CYP3A4-luciferase reporter” value (human PXR; human)?
Its value is “activated the CYP3A4-luciferase reporter with similar potency but greater efficacy than JQ1”.

What about the “CMV-Renilla luciferase reporter expression” value (CMV promoter) of the same compound?
The value was “only marginally induced the CMV-Renilla luciferase reporter at high concentrations”.

And the “binding to BET proteins” value (BET proteins)?
Its value is “does not bind BET proteins”.
